From PMC11676667, “Pharmacokinetics of Oral Cannabinoid Δ8-Tetrahydrocannabivarin and Its Main Metabolites in Healthy Participants” (Pharmaceuticals, 2024)

Assay: Plasma pharmacokinetics after single oral dose of Δ8-THCV in MCT oil (LC-MS/MS, non-compartmental analysis)
Format: in vivo, human
Design: Clast (last quantifiable concentration): unit not given here
Details: for Clast (last quantifiable concentration) / tlast (time to last quantifiable concentration) / concentration at 0.5 h / concentration at 1 h / concentration at 2 h / concentration at 4 h / concentration at 6 h / concentration at 8 h: plasma; for plasma concentration: Predose; for concentration at 0.5 h / concentration at 1 h / concentration at 2 h / concentration at 4 h / concentration at 6 h / concentration at 8 h: human, oral
Outline: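 Healthy participants received single oral Δ8-THCV in MCT oil (50 mg/mL; 12.5-200 mg, or placebo) after a high-fat, high-calorie breakfast, with ≥1-week washout. Plasma (K2EDTA) sampled predose and 0.5-8 h post-dose, assayed by validated LC-MS/MS including metabolites; PK by non-compartmental analysis, sub-LLOQ values set to 0.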

[1] = 12.5 mg single oral Δ8-THCV in MCT oil, Mean (±SD)
[2] = 12.5 mg single oral Δ8-THCV in MCT oil, Median (Range)
[3] = 25 mg single oral Δ8-THCV in MCT oil, Mean (±SD)
[4] = 25 mg single oral Δ8-THCV in MCT oil, Median (Range)
[5] = 50 mg single oral Δ8-THCV in MCT oil, Mean (±SD)
[6] = 50 mg single oral Δ8-THCV in MCT oil, Median (Range)
[7] = 100 mg single oral Δ8-THCV in MCT oil, Mean (±SD)
[8] = 100 mg single oral Δ8-THCV in MCT oil, Median (Range)
[9] = 200 mg single oral Δ8-THCV in MCT oil, Mean (±SD)
[10] = 200 mg single oral Δ8-THCV in MCT oil, Median (Range)
[11] = 12.5 mg, 12.5 mg Δ8-THCV dose, Mean (SD, %CV)
[12] = 12.5 mg, 12.5 mg Δ8-THCV dose, Median (IQ Range)
[13] = 25 mg, 25 mg Δ8-THCV dose, Mean (SD, %CV)
[14] = 25 mg, 25 mg Δ8-THCV dose, Median (IQ Range)
[15] = 50 mg, 50 mg Δ8-THCV dose, Mean (SD, %CV)
[16] = 50 mg, 50 mg Δ8-THCV dose, Median (IQ Range)

## CCCc1cc(O)c2c(c1)OC(C)(C)[C@@H]1CC=C(C)C[C@@H]21 [Δ8-THCV, Δ8-tetrahydrocannabivarin]
[1]
  Clast (last quantifiable concentration): 0.9 (±0.3)
  tlast (time to last quantifiable concentration): 5.3 (±2.3)
[2]
  Clast (last quantifiable concentration): 0.7 (0.6–1.5)
  tlast (time to last quantifiable concentration): 5 (2–8)
[3]
  Clast (last quantifiable concentration): 1.1 (±0.4)
  tlast (time to last quantifiable concentration): 6.3 (±1.9)
[4]
  Clast (last quantifiable concentration): 1 (0.5–1.8)
  tlast (time to last quantifiable concentration): 7 (4–8)
[5]
  Clast (last quantifiable concentration): 2.3 (±1.5)
  tlast (time to last quantifiable concentration): 7.9 (±0.5)
[6]
  Clast (last quantifiable concentration): 2.2 (0.6–5.5)
  tlast (time to last quantifiable concentration): 8 (6–8)
[7]
  Clast (last quantifiable concentration): 4.1 (±3.1)
  tlast (time to last quantifiable concentration): 8 (±0)
[8]
  Clast (last quantifiable concentration): 3.1 (0.8–9.9)
  tlast (time to last quantifiable concentration): 8 (8–8)
[9]
  Clast (last quantifiable concentration): 21.2 (±23.2)
  tlast (time to last quantifiable concentration): 8 (±0)
[10]
  Clast (last quantifiable concentration): 13.4 (1.5–87.6)
  tlast (time to last quantifiable concentration): 8 (8–8)
12.5 mg Δ8-THCV dose, Mean (SD, %CV)
  plasma concentration: 0 (±0, --) ng/mL
12.5 mg Δ8-THCV dose, Median (IQ Range)
  plasma concentration: 0 (0–0) ng/mL
25 mg Δ8-THCV dose, Mean (SD, %CV)
  plasma concentration: 0 (±0, --) ng/mL
25 mg Δ8-THCV dose, Median (IQ Range)
  plasma concentration: 0 (0–0) ng/mL
50 mg Δ8-THCV dose, Mean (SD, %CV)
  plasma concentration: 0 (±0, --) ng/mL
50 mg Δ8-THCV dose, Median (IQ Range)
  plasma concentration: 0 (0–0) ng/mL
100 mg Δ8-THCV dose, Mean (SD, %CV)
  plasma concentration: 0 (±0, --) ng/mL
100 mg Δ8-THCV dose, Median (IQ Range)
  plasma concentration: 0 (0–0) ng/mL
200 mg Δ8-THCV dose, Mean (SD, %CV)
  plasma concentration: 0 (±0, --) ng/mL
200 mg Δ8-THCV dose, Median (IQ Range)
  plasma concentration: 0 (0–0) ng/mL
After the 200 mg dose, Δ8-THCV = 1
  median AUClast ratio Δ8-THCV-COOH/Δ8-THCV/11-OH-Δ8-THCV: 1
[11]
  concentration at 0.5 h: 0 ng/mL
  concentration at 1 h: 0.1 ng/mL
  concentration at 2 h: 0.4 ng/mL
  concentration at 4 h: 0.7 ng/mL
  concentration at 6 h: 0.5 ng/mL
  concentration at 8 h: 0.2 ng/mL
[12]
  concentration at 0.5 h: 0 ng/mL
  concentration at 1 h: 0 ng/mL
  concentration at 2 h: 0 ng/mL
  concentration at 4 h: 0.6 ng/mL
  concentration at 6 h: 0 ng/mL
  concentration at 8 h: 0 ng/mL
[13]
  concentration at 0.5 h: 0 ng/mL
  concentration at 1 h: 0.3 ng/mL
  concentration at 2 h: 1.4 ng/mL
  concentration at 4 h: 1.8 ng/mL
  concentration at 6 h: 0.9 ng/mL
  concentration at 8 h: 0.4 ng/mL
[14]
  concentration at 0.5 h: 0 ng/mL
  concentration at 1 h: 0 ng/mL
  concentration at 2 h: 0.3 ng/mL
  concentration at 4 h: 1.5 ng/mL
  concentration at 6 h: 0.7 ng/mL
  concentration at 8 h: 0.3 ng/mL
[15]
  concentration at 0.5 h: 0.1 ng/mL
  concentration at 1 h: 0.5 ng/mL
  concentration at 2 h: 2.6 ng/mL
  concentration at 4 h: 4.3 ng/mL
  concentration at 6 h: 6.1 ng/mL
  concentration at 8 h: 2.2 ng/mL
[16]
  concentration at 0.5 h: 0 ng/mL
  concentration at 1 h: 0 ng/mL
  concentration at 2 h: 0 ng/mL
  concentration at 4 h: 2.4 ng/mL
  concentration at 6 h: 2.8 ng/mL
  concentration at 8 h: 2.2 ng/mL
100 mg, 100 mg Δ8-THCV dose, Mean (SD, %CV)
  concentration at 0.5 h: 0.2 ng/mL
